From ChEMBL document CHEMBL5518186, “Discovery of the cereblon-recruiting tubulin PROTACs effective in overcoming Taxol resistance in vitro and in vivo” (Eur J Med Chem, 2024)
Activity calls are given as the source filed them. No cut-off for these calls is given here.

Legend:
[1] = biological target: T1, Protein cereblon-alpha tubulin (Homo sapiens) (UniProt P0DPH7+P68366+Q71U36+P68363+Q9BQE3+Q6PEY2+A6NHL2+Q9NY65+Q96SW2); test: Protac activity at CRBN/alpha-tubulin in human A549 cells assessed as reduction in alpha-tubulin level at 0.25 uM after 72 hrs by immunoblotting analysis; assay type: cell-based; design: scale not given: the % may be the effect or the level left
HepG2 = test: Inhibition of cell proliferation in human HepG2 cells; assay type: functional, cell-based
A549/TR [2] = test: Induction of apoptosis in human A549/Taxol cells at 0.05 uM incubated for 48 hrs by Annexin V-FITC/PI staining based flow cytometry analysis; assay type: functional
A549 [3] = test: Antitumor activity against human A549 cells xenografted in nude mouse assessed as tumor growth inhibition at 15 mg/kg, […] administered once every 2 days for 23 days by Vernier caliper method; assay type: functional; conditions: A549, 552 h, time 23 day, read-out: TGI
[4] = biological target: T2, Protein cereblon/Tubulin beta (Homo sapiens) (UniProt P68371+Q9H4B7+Q13509+P04350+Q3ZCM7+P07437+Q13885+Q9BVA1+Q9BUF5+Q96SW2+A6NNZ2); test: Protac activity at CRBN/beta-tubulin in human A549/Taxol cells assessed as reduction in beta-tubulin level at 0.25 uM pretreated with CA-4 for 2 hrs followed by compound addition and measured after 48 hrs by immunoblotting analysis; assay type: cell-based
[5] = biological target: T1, Protein cereblon-alpha tubulin (Homo sapiens); test: Protac activity at CRBN/alpha-tubulin in human A549 cells assessed as reduction in alpha-tubulin level at 0.25 uM pretreated with pomalidomide for 2 hrs followed by compound addition and measured after 24 hrs by immunoblotting analysis; assay type: cell-based
[6] = Toxicity in nude mouse xenografted with human A549/Taxol cells assessed as body weight loss at 15 mg/kg, ip administered once every 2 days for 23 days and measured every 3 days; assay type: organism-based, A549/TR; conditions: in vivo, 552 h, time 23 day
[7] = biological target: T2, Protein cereblon/Tubulin beta (Homo sapiens); test: Protac activity at CRBN/beta-tubulin in human A549 cells assessed as reduction in beta-tubulin level at 0.01 to 1 uM incubated for 48 hrs by immunoblotting analysis; assay type: cell-based; conditions: dose 0.01-1 µM
A549/TR [8] = test: Induction of cell cycle arrest in human A549/Taxol cells assessed as accumulation of cells at S phase at 0.05 uM incubated for 24 hrs by PI staining based flow cytometry analysis (reference value: 2.85%); assay type: functional
A549 [9] = test: Inhibition of cell growth in human A549 cells incubated for 72 hrs by SRB method; assay type: functional, cell-based
A549 [10] = test: Induction of cell cycle arrest in human A549 cells assessed as accumulation of cells at G0/G1 phase at 0.05 uM incubated for 24 hrs by PI staining based flow cytometry analysis (reference value: 66.75%); assay type: functional
[11] = biological target: T3, Protein cereblon/Tubulin beta-3 chain (Homo sapiens, UniProt Q13509+Q96SW2); test: Protac activity at CRBN/beta3-tubulin in human A549 cells assessed as reduction in beta3-tubulin level incubated for 48 hrs by immunoblotting analysis; assay type: cell-based
[12] = Inhibition of cell growth in human MCF7/Taxol cells incubated for 72 hrs by SRB method; assay type: functional, cell-based
A549 [13] = test: Induction of apoptosis in human A549 cells assessed as increase in apoptotic rate at 0.05 uM incubated for 48 hrs by Annexin V-FITC/PI staining based flow cytometry analysis (reference value: 1.3%); assay type: functional
HeLa = test: Antiproliferative activity against human HeLa cells incubated for 72 hrs; assay type: functional, cell-based
A549/TR [14] = test: Induction of cell cycle arrest in human A549/Taxol cells assessed as accumulation of cells at G2/M phase at 0.01 uM incubated for 24 hrs by PI staining based flow cytometry analysis (reference value: 17.02%); assay type: functional
[15] = biological target: T2, Protein cereblon/Tubulin beta (Homo sapiens); test: Protac activity at CRBN/beta-tubulin in human A549/Taxol cells assessed as reduction in beta-tubulin level at 0.25 uM pretreated with pomalidomide for 2 hrs followed by compound addition and measured after 48 hrs by immunoblotting analysis; assay type: cell-based
[16] = biological target: T1, Protein cereblon-alpha tubulin (Homo sapiens); test: Protac activity at CRBN/alpha-tubulin in human A549 cells assessed as reduction in alpha-tubulin level at 0.25 uM pretreated for 48 hrs followed by compound washout and measured upto 24 hrs by immunoblotting analysis; assay type: cell-based
MCF7 [17] = test: Inhibition of cell growth in human MCF7 cells incubated for 72 hrs by SRB method; assay type: functional, cell-based; conditions: MCF7, 72 h
A549 [18] = test: Induction of cell cycle arrest in human A549 cells assessed as accumulation of cells at S phase at 0.05 uM incubated for 24 hrs by PI staining based flow cytometry analysis (reference value: 1.39%); assay type: functional
[19] = biological target: T2, Protein cereblon/Tubulin beta (Homo sapiens); test: Protac activity at CRBN/beta-tubulin in human A549 cells assessed as reduction in beta-tubulin level at 0.25 uM pretreated with MG-132 followed by compound addition and measured after 24 hrs by immunoblotting analysis; assay type: cell-based
A549/TR [20] = test: Inhibition of colony formation in human A549/Taxol cells incubated for 24 hrs followed by media replacement at every 3 days for 14 days by crystal violet staining based assay; assay type: functional, cell-based; conditions: dose 2-50 nM, time 14.0 day
[21] = biological target: T1, Protein cereblon-alpha tubulin (Homo sapiens); test: Protac activity at CRBN/alpha-tubulin in human A549 cells assessed as reduction in alpha-tubulin level at 0.25 uM by immunoblotting analysis; assay type: cell-based; conditions: time 6-72 hrs, TDE = time-dependent effect
[22] = biological target: T1, Protein cereblon-alpha tubulin (Homo sapiens); test: Protac activity at CRBN/alpha-tubulin in human A549 cells assessed as reduction in alpha-tubulin level at 0.25 uM pretreated with MG-132 followed by compound addition and measured after 24 hrs by immunoblotting analysis; assay type: cell-based
MCF7 [23] = test: Antiproliferative activity against human MCF7 cells incubated for 72 hrs; assay type: functional, cell-based; conditions: MCF7, 72 h
[24] = biological target: T3, Protein cereblon/Tubulin beta-3 chain; test: Protac activity at CRBN/beta3-tubulin in human A549 cells assessed as reduction in beta3-tubulin level at 0.25 uM pretreated with pomalidomide for 2 hrs followed by compound addition and measured after 24 hrs by immunoblotting analysis; assay type: cell-based
Target sequence in this assay (Q13509 whole entry, looked up): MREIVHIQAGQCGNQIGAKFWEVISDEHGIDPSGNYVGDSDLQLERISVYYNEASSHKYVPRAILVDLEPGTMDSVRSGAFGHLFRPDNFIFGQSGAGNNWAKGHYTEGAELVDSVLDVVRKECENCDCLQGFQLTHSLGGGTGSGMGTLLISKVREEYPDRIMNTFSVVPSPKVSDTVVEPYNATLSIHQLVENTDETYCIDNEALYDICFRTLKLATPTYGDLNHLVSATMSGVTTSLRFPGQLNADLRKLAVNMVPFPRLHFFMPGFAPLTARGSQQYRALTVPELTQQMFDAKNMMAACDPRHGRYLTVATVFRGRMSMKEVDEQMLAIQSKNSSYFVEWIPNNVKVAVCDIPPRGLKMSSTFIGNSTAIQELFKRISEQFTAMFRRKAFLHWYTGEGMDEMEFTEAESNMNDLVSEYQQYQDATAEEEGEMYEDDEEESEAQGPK
Target sequence in this assay (Q96SW2 whole entry, looked up): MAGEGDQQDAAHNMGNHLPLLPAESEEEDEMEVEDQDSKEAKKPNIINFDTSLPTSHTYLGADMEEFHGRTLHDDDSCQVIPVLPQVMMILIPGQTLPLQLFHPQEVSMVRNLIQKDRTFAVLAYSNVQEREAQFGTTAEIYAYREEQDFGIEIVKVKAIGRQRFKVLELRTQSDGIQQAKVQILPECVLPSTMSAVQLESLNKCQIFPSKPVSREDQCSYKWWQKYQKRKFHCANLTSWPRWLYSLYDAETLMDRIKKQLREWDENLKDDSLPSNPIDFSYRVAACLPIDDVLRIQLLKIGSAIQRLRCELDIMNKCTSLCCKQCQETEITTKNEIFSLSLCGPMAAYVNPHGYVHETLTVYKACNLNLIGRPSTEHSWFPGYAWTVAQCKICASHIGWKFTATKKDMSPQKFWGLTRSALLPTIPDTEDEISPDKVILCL

[25] = biological target: T3, Protein cereblon/Tubulin beta-3 chain; test: Protac activity at CRBN/beta3-tubulin in human HepG2 cells assessed as reduction in beta3-tubulin level at 10 to 1000 nM incubated for 48 hrs by immunoblotting analysis; assay type: cell-based; conditions: dose 10-1000 nM
Target sequence in this assay (Q13509 whole entry, looked up): as the sequence (Q13509 whole entry, looked up) above
Target sequence in this assay (Q96SW2 whole entry, looked up): as the sequence (Q96SW2 whole entry, looked up) above

[26] = biological target: T1, Protein cereblon-alpha tubulin (Homo sapiens); test: Protac activity at CRBN/alpha-tubulin in human MCF7 cells assessed as reduction in alpha-tubulin level at 10 to 1000 nM incubated for 48 hrs by immunoblotting analysis; assay type: cell-based; conditions: dose 10-1000 nM
HEK-293T = test: Cytotoxicity against HEK293T cells assessed as effect on cell viability at 20 uM; assay type: toxicity, cell-based; conditions: human
A549/TR [27] = test: Induction of cell cycle arrest in human A549/Taxol cells assessed as accumulation of cells at G0/G1 phase at 0.05 uM incubated for 24 hrs by PI staining based flow cytometry analysis (reference value: 77.86%); assay type: functional
[28] = biological target: T3, Protein cereblon/Tubulin beta-3 chain; test: Protac activity at CRBN/beta3-tubulin in human A549 cells assessed as reduction in beta3-tubulin level at 0.25 uM after 72 hrs by immunoblotting analysis; assay type: cell-based
Target sequence in this assay (Q13509 whole entry, looked up): as the sequence (Q13509 whole entry, looked up) above
Target sequence in this assay (Q96SW2 whole entry, looked up): as the sequence (Q96SW2 whole entry, looked up) above

A549 [29] = test: Antiproliferative activity against human A549 cells incubated for 72 hrs; assay type: functional, cell-based; conditions: A549, 72 h
HUVEC = test: Antiangiogenic activity in HUVECs assessed as reduction in tube area at 2.5 nM incubated for 6 to 8 hrs by inverted microscopic analysis; assay type: functional, cell-based; conditions: Homo sapiens, time 6-8 hrs
A549 [30] = test: Induction of cell cycle arrest in human A549 cells assessed as accumulation of cells at G2/M phase at 0.01 uM incubated for 24 hrs by PI staining based flow cytometry analysis (reference value: 31.86%); assay type: functional

COc1ccc(/C=C\c2cc(OC)c(OC)c(OC)c2)cc1OC(=O)CCCNc1cccc2c1C(=O)N(C1CCC(=O)NC1=O)C2=O (stereo unspecified)
Activity [1]: 43.7%
inhibition (HepG2): Active
Activity (A549/TR [2]): 36.2%
inhibition in vivo at 15 mg/kg (A549 [3]): 34.1%
Activity [4]: inactive
Activity [5]: inactive
Activity [6]: Non-Toxic
Activity [7]: Active
Activity (A549/TR [8]): 3.85%
inhibition (A549 [9]): Dose-Dependent Effect
IC50 (A549 [9]; A549, 72 h): 10 nM
Activity (A549 [10]): 10.15%
Activity [11]: Dose-Dependent Effect
DC50 [11]: 251 nM
IC50 [12]: 6 nM
Activity (A549 [13]): 48.2%
IC50 (HeLa): 21 nM
Activity (A549/TR [14]): 63.83%
Activity [15]: inactive
Activity [16]: Active
IC50 (MCF7 [17]): 12 nM
Activity (A549 [18]): 16.44%
Activity [19]: inactive
inhibition (A549/TR [20]): Dose-Dependent Effect
Activity [21]: Tde
Activity [22]: inactive
IC50 (MCF7 [23]): 12 nM
Activity [24]: inactive
Activity [25]: Active
Activity [26]: Active
Activity (HEK-293T): Non-Toxic
Activity (A549/TR [27]): 30%
Activity [28]: inactive
IC50 (A549 [29]): 10 nM
Activity (HUVEC): Active
Activity (A549 [30]): 68.36%
